Test results reported in patent US5556872A, “Histamine derivatives useful as immunomodulators” (The Board of Trustees of the Leland Stanford Junior …, priority 1995, dated 1996).

Experiments:
[1] = tested on: IgG antibody response to horse myoglobin (h-Mb); assay: Inhibition of IgG and IgG subclass antibody response to horse myoglobin in immunized mice (anti-horse myoglobin ELISA); type: in vivo, DBA/2 mice; details: vs saline control mice
Procedure: ELISA plates were coated with 10 ug/ml commercially available horse myoglobin (h-Mb) in PBS 50 ul/well overnight at 4 deg C. The plates were washed with PBS once. The plates were then coated with 50 ul BBA (1 mg/ml) and washed with PBS once. The plates were then coated with test serum diluted in PBS-Tween, 50 ul/well and incubated at 4 deg C. overnight. The plates were then washed with PBS-Tween three times. Anti-IgG (1:2000) was added and diluted with PBS-Tween. For the IgG antibody subclasses, anti-IgG1, anti-IgG2a, anti-IgG2b was diluted and added to selected wells. Incubation was at 4 deg C. for two hours. Washing was with PBS-Tween 2 times with 5 minutes between each wash. A 1 mg/ml OPD in citrate buffer solution pH5 was prepared and 10 ul of H2O2/10 ml was added to the buffer solution. 50 ul of buffer was added to each well and the plates were placed in the dark for about 10 minutes. The reaction was stopped with 50 ul of 5N H2SO4 in each well. The plates were then read on an Elisa reader.
The following immunization protocol was repeated several times. The results have been collected in FIGS. 1a-d.
This experiment was done using two groups of 2-6 DBA/2 mice (average weight 22 grams). One group of mice were given one treatment of compound 3 intravenously one day before antigen treatment (day-1) and two days following antigen treatment (day+2). The dose of compound 3 was approximately 36 mg/kg in 100 ul of PBS. The other group of mice was given a saline control in 100 ul PBS. On day 0 the two groups of mice were injected with 100 ug h-Mb in 100 ul CFA intravenously (i.v.). The mice were then boosted fourteen days later with 100 ug of h-Mb in 100 ul IFA. The mice were bled 30 days later.

H3 = assay: Dominant interactions of congeners with histamine receptors: H3; type: binding; details: Human lymphocytes, monocytes and neutrophils
H1 = H1 (Homo sapiens, UniProt P35367); assay: Dominant interactions of congeners with histamine receptors: H1; type: binding
H1, sequence (P35367 whole entry): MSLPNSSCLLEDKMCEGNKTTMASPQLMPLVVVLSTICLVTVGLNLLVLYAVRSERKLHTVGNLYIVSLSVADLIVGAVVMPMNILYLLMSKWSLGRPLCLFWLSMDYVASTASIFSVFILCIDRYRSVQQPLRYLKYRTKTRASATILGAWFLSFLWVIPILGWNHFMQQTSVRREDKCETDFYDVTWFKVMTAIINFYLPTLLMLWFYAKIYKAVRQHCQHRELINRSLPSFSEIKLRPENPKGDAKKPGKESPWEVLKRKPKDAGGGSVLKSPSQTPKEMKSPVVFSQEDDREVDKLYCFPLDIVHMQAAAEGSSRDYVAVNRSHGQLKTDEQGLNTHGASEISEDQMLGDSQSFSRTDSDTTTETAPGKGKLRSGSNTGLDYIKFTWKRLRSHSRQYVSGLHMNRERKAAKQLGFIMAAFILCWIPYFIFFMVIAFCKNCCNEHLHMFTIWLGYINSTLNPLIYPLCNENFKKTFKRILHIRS

Hx = assay: Dominant interactions of congeners with histamine receptors: Hx; type: binding, Human
H2 = H2 (Homo sapiens, UniProt P25021); assay: Dominant interactions of congeners with histamine receptors: H2; type: binding
H2, sequence (P25021 whole entry): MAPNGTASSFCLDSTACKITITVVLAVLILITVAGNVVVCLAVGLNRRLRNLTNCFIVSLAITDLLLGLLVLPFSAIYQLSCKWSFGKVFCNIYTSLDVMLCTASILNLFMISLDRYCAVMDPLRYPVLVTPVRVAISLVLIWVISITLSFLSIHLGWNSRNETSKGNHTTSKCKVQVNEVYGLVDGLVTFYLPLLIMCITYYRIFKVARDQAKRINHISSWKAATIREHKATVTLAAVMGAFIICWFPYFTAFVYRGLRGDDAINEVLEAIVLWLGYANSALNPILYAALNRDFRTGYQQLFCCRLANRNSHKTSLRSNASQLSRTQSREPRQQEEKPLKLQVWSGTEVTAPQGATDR

[2] = tested on: pokeweed mitogen-induced B cell differentiation; details: pretreatment of human Ts cells with histamine; mediated via H2 receptors; cited from earlier work
[3] = tested on: phytohemagglutinin-induced Th proliferation; details: pretreatment of human Ts cells with histamine; mediated via H2 receptors; cited from earlier work
human Ts cells = details: Khan et al. 1985, Sansoni et al. 1985; cited from earlier work
murine NS cells = details: in vitro; cited from earlier work
[4] = comparable experiment using Compound 1, FIG. 3
[5] = compound 3 approx. 36 mg/kg i.v. day -1 and day +2, FIG. 1

## CC(CCCCC(=O)Nc1ccc(C(F)(F)F)cc1)NCCc1c[nH]cn1 (stereo not shown) [Compound 1, His--NH--CHCH3--(CH2)4 CONH--phi--CF3]
[1]; [4]
  IgG1 response: lower
  IgG2a response: lower
  IgG response: lower
H3
  H3 dominant interaction: AntiHx

## O=C(CCCCCNCCc1c[nH]cn1)Nc1ccc(C(F)(F)F)cc1 [Compound 3, His--NH--(CH2)5 CONH--phi--CF3]
H1
  H1 receptor activity (in words): not H1 receptor activity
Hx
  Hx activity (in words): some Hx activity
[1]; [5]
  IgG1 response: lower
  IgG2a response: lower
  IgG2b response: lower
  total IgG response to h-Mb: much lower
H2
  H2 receptor activity (in words): has been shown to have H2 receptor activity

## NCCc1c[nH]cn1 [Histamine]
[2]
  pokeweed mitogen-induced B cell differentiation: inhibited
Hx; Human lymphocytes, monocytes and neutrophils
  Hx dominant interaction: AntiHx
[3]
  phytohemagglutinin-induced Th proliferation: inhibited
Human Ts cells
  effect on human Ts cells: activates human Ts cells
Murine NS cells
  effect on suppressive ability of murine NS cells: enhances the suppressive ability of murine NS cells in vitro
